For assay [1], the system named is ykt6 SNARE complexes. The experiment in a line: Co-IP of GFP-ykt6 SNARE complexes under lysosomal stress. It is filed as cell-based, human. On the procedure: FIGS. 3A, 3B, 3C, 3D, 3E, 3F, 3G, 3H, 3I, 3J, and 3K. Ykt6 is activated in response to lysosomal stress. 3A) Ykt6 membrane shift analysis in bafA1 (200 nM, 2 hrs) or NH4Cl (1M, 12 hrs) treated iPSn (d60). CBB, coomassie brilliant blue, (BafA1 and NH4Cl are indicated, n=7-10). 3B) Co-IP of GFP-ykt6 and bet1 in control iPSn (d60) treated with bafA1 (n=3). 3C) Ykt6 and GM130 immunofluorescence analysis of bafA1-treated H4 cells (n=9). Scale bars=10 um. 3D) Ykt6 membrane shift analysis in CBE-treated SH-SY5Y cells (50 μM, 2d, n=3). 3E) Co-IP of GFP-ykt6, bet1 and STX5 in CBE-treated SHSY5Y cells (n=5). 3F) Ykt6 membrane shift analysis in control or Gaucher disease (GD) iPSn (d100). a-Syn was knocked-out (SNCA KO) in GD lines by CRISPR/Cas9. Two exposures are included to better visualize cyt and mem ykt6 (n=4). 3G) Ykt6 membrane shift analysis in lenti-infected SH-SY5Y cells (moi3, dpi 10) (n=3). C, cytosolic; N, nuclear. 3H) GCase maturation was assessed by endo H digest in lenti-infected SH-SY5Y cells. […] 3I) Control iPSn were infected as in 3H and analyzed for GCase maturation (n=3). […]
To co-IP ykt6 SNARE assemblies, approximately 106-107 cells expressing GFP-tagged YKT6, were harvested in 1 ml of PBS, scraped off the plate and transferred to centrifuge tubes. […] Eluates were analyzed by western blot as described below. The samples were not analyzed in a blinded manner.

Assay [2] has as its system ykt6. The experiment in a line: Ykt6 membrane shift analysis under lysosomal stress. It is filed as cell-based, human. On the procedure: FIGS. 3A, 3B, 3C, 3D, 3E, 3F, 3G, 3H, 3I, 3J, and 3K. Ykt6 is activated in response to lysosomal stress. 3A) Ykt6 membrane shift analysis in bafA1 (200 nM, 2 hrs) or NH4Cl (1M, 12 hrs) treated iPSn (d60). CBB, coomassie brilliant blue, (BafA1 and NH4Cl are indicated, n=7-10). 3B) Co-IP of GFP-ykt6 and bet1 in control iPSn (d60) treated with bafA1 (n=3). 3C) Ykt6 and GM130 immunofluorescence analysis of bafA1-treated H4 cells (n=9). Scale bars=10 um. 3D) Ykt6 membrane shift analysis in CBE-treated SH-SY5Y cells (50 μM, 2d, n=3). 3E) Co-IP of GFP-ykt6, bet1 and STX5 in CBE-treated SHSY5Y cells (n=5). 3F) Ykt6 membrane shift analysis in control or Gaucher disease (GD) iPSn (d100). a-Syn was knocked-out (SNCA KO) in GD lines by CRISPR/Cas9. Two exposures are included to better visualize cyt and mem ykt6 (n=4). 3G) Ykt6 membrane shift analysis in lenti-infected SH-SY5Y cells (moi3, dpi 10) (n=3). C, cytosolic; N, nuclear. 3H) GCase maturation was assessed by endo H digest in lenti-infected SH-SY5Y cells. Empty vector (vect), scrambled (scrb). 3I) Control iPSn were infected as in 3H and analyzed for GCase maturation (n=3). 3J) Live cell GCase activity in lenti-infected iPSn (n=4). 3K) Lysosomal mass measurement in control iPSn (n=4). Values are the mean+/−SEM, *p<0.05.
FIGS. 12A, 12B, 12C, 12D, 12E, and 12F. The effects of ykt6 knock-down on the lysosomal system and characterization of GD-SNCA KO iPSCs. […] 12B) Protein secretion was measured by radioactive pulse-chase from the same culture wells that correspond to proteolysis data of FIG. 2H. 12C) Control iPSn were treated with 50 mM sucrose for 7 days followed by membrane shift analysis of ykt6. 12D) Control iPSn were infected with scrambled (S) or ykt6 shRNA (KD) and treated with or without sucrose as done in panel B. LAMP1 levels were analyzed by western blot. GAPDH is a loading control (n=4). 12E) Cultures were treated as described in panel C, and analyzed for GCase maturation by western blot analysis (n=4). For all quantifications, values are the mean+/−SEM, *p<0.05. 12F) Analysis of off-target edits by CRISPR/Cas9 in SNCA knock out (KO) Gaucher disease iPSCs. The targeting strategy has been previously published (Zunke et al., 2018). Genomic sequences showing the closest homology to SNCA were analyzed for mis-matched mutations by T7 digestion, and compared to the parental GD line. PCR amplicons were analyzed by agarose gel electrophoresis stained with ethidium bromide. For all quantifications, values are the mean+/−SEM, *p<0.05. Student's T-test was used in panel 12A, while ANOVA with Tukey's post-hoc test was used in panels 12D and 12E.
Separation of lysates into cytosol and membrane fractions. […]

Assay [3] addresses T1, ykt6 SNARE binding (STX5) (Homo sapiens, UniProt O15498).
T1 construct: expressed in transfected cells
T1 sequence (O15498 1-195 limits assumed): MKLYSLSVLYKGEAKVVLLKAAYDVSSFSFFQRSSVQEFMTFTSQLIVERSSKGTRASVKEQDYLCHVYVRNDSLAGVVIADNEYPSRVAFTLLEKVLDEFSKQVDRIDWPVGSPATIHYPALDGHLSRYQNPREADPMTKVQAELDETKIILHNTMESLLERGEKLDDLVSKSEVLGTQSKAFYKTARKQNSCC
In words: Co-IP of GFP-ykt6 and STX5 in Hela cells. It is filed as cell-based. The settings on record: Hela cells stably expressing GFP-ykt6; 2 days.

The target of assay [4] is T2, ykt6 (Homo sapiens, UniProt O15498).
T2 construct: expressed in transfected cells
T2 sequence (O15498 1-198): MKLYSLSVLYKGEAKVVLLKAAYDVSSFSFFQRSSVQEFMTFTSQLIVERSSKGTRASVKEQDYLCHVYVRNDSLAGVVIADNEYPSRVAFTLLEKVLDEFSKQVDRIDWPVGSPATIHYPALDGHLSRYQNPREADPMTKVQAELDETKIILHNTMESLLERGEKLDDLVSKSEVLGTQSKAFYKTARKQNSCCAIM
In words: GFP-ykt6 / GM130 colocalization in Hela cells. Type of assay: cell-based. The settings on record: Hela cells stably expressing GFP-ykt6; 2 days, various concentrations. On the procedure:
FIG. 19. […] A) Hela cells stably expressing GFP-ykt6 (green) were treated with #20 for 2 days at various concentrations, fixed, stained with Golgi marker GM130 (red), and colocalization was quantified by Pearson's correlation. Each plot represents an individual cell, from 3 culture wells. LNK-754 was used at 10 nM. B) Stable transfected Hela cells were incubated as in A followed by biochemical fractionation/western blot to detect cytosolic (cyt) or membrane (mem) ykt6. The assay was repeated 3 times, representative blot shown.
We tested the activity of Compound #20 ((3R)-1-[(1-{[1-(4,5-dimethylthiophene-2-carbonyl)piperidin-4-yl]methyl}-1H-1,2,3-triazol-4-yl)methyl]pyrrolidin-3-amine) regarding activation of ykt6 in Hela cells. (See FIG. 19). Hela cells stably expressing GFP-ykt6 were treated with Compound #20 for 2 days at various concentrations, fixed, stained with Golgi marker GM130, and colocalization was quantified by Pearson's correlation.

Structures are written as SMILES. “Also recorded” adds a separate entry of the source.

Take `O[C@H]1[C@H](O)[C@@H](O)[C@@H]2O[C@@H]2[C@@H]1O` [CBE]: the “ykt6 SNARE complexes (co-IP GFP-ykt6, bet1 and STX5)” value in assay [1] (SHSY5Y cells) is “increased ykt6 SNARE complexes”. In addition, in assay [2] (SH-SY5Y cells, 50 μM, 2d), the ykt6 cytosol/membrane distribution result is listed as “caused ykt6 to shift into membranes”. On to `Cc1cc(C(=O)N2CCC(Cn3cc(CN4CC[C@@H](N)C4)nn3)CC2)sc1C` [Compound #20, (3R)-1-[(1-{[1-(4,5-dimethylthiophene-2-carbonyl)piperidin-4-yl]methyl}-1H-1,2,3-triazol-4-yl)methyl]pyrrolidin-3-amine], for which the “SNARE binding (STX5 co-IP)” value in assay [3] is reported as “increases SNARE binding”. Moreover, the “ykt6 activity (GFP-ykt6 colocalization with GM130, Pearson's correlation)” value in assay [4] is given as “can activate ykt6; also recorded: increases ykt6 activity”. `Cl.N` [NH4Cl]: the ykt6 cytosol/membrane distribution entry in assay [2] (healthy control iPSn (d60), 1M, 12 hrs) is reported as “caused a shift of ykt6 from the cytosol into membrane fractions”. For the molecule `CO/C1=C\C(C)=C\[C@@H](C)[C@@H](O)[C@@H](C)C/C(C)=C/C=C/[C@H](OC)[C@@H]([C@@H](C)[C@@H](O)[C@H](C)[C@@]2(O)C[C@@H](O)[C@H](C)[C@@H](C(C)C)O2)OC1=O` [bafilomycin A1], in assay [1] (control iPSn (d60)), the “assembly of ykt6 ER-Golgi SNARE complexes (co-IP GFP-ykt6 and bet1)” value is listed as “promoted the assembly of ykt6 ER-Golgi SNARE complexes”. Further, the ykt6 cytosol/membrane distribution result in assay [2] (healthy control iPSn (d60), 200 nM, 2 hrs) is reported as “caused a shift of ykt6 from the cytosol into membrane fractions”. On to `OC[C@H]1O[C@@](CO)(O[C@H]2O[C@H](CO)[C@@H](O)[C@H](O)[C@H]2O)[C@@H](O)[C@@H]1O` [sucrose], for which the ykt6 cytosol/membrane distribution entry in assay [2] (control iPSn, 50 mM, 7 days) is given as “caused ykt6 to shift into membranes”.

For the origin of these results see patent US12226410B2, “Methods for enhancing cellular clearance of pathological molecules via activation of the cellular protein ykt6” (NORTHWESTERN UNIVERSITY, priority 2019, dated 2025).
